PMC12635268, “Novel antimicrobial peptides and peptide-microbiome crosstalk in Appalachian salamander skin” (NPJ Biofilms and Microbiomes, 2025)
Read-outs that look alike come from different tables or passages of the source. Ends that are not written are not given here. Peptide text beside a SMILES is read from it.

How the values were obtained:
E. faecium ATCC 19434 = assay: microbe, parasite or virus in culture
Protocol: (§1) Antimicrobial susceptibility testing of the 20 synthesized peptides against 17 bacterial strains of clinical relevance in the ESKAPEE panel was conducted using minimum inhibitory concentration (MIC) assays following the broth microdilution method outlined by Parker et al.[91]. The ESKAPEE panel is comprised of fourteen American Type Culture Collection (ATCC) strains and three Multidrug Resistant Organism Repository and Surveillance Network (MRSN) bacterial strains. These strains represent at least one drug-susceptible strain and one drug-resistant strain for each bacterium to assess drug efficacy across various resistance mechanisms. This panel is comprised of the following bacterial species and strains: E. faecium (ATCC 19434, ATCC 49224), S. aureus (ATCC 25923, ATCC 43300), K. pneumoniae (ATCC 700603, ATCC 13883, MRSN 1320), A. baumannii (ATCC 17978, ATCC 19606, MRSN 959), P. aeruginosa (ATCC 15692, ATCC 27853, MRSN 5519), E. cloacae (ATCC 13047, ATCC 35549), and E. coli (ATCC 35218, ATCC 43888). Bacteria were grown in cation-adjusted Mueller-Hinton broth (CAMHB) to achieve a final inoculum of 1 × 10⁵ CFU/mL. CAMHB is selected for its batch-to-batch reproducibility, low levels of antimicrobial inhibitors, and ability to support the growth of most bacterial pathogens.
(§2) Briefly, lyophilized peptides were dissolved in 0.2% TFA + 0.4% BSA in water to 2.56 mg/mL, ultrasonicated for 20 min, diluted 10-fold into CAMHB, and then serially diluted 2-fold in 0.02% TFA + 0.04% BSA in CAMHB and assayed at a concentration of 0.25 to 128 μg/mL. Assays were set up using the Tecan Freedom EVO liquid handling robot and software (Tecan, Switzerland) with 50 μL of bacterial inoculum and 50 μL of peptide transferred into round-bottom 96-well microtiter plates. Each plate assay was performed in duplicate and incubated at 37 °C for 20 h without agitation. Bacterial growth was assessed using the BIOMIC V3 Image Analysis system (Giles Scientific, USA) and the MIC values were determined visually according to the Clinical and Laboratory Standards Institute (CLSI) guidelines.

S. aureus ATCC 25923 = assay: microbe, parasite or virus in culture
Protocol: as §1, §2

E. coli ATCC 35218 = assay: microbe, parasite or virus in culture; conditions: E. coli 35218; Week 1 (12/6/2023)
Protocol: as §1, §2

E. faecium ATCC 49224 = assay: microbe, parasite or virus in culture
Protocol: as §1, §2

P. aeruginosa ATCC 27853 = assay: microbe, parasite or virus in culture
Protocol: as §1, §2

K. pneumoniae ATCC 13883 = assay: microbe, parasite or virus in culture
Protocol: as §1, §2

S. aureus ATCC 43300 = assay: microbe, parasite or virus in culture; conditions: S. aureus 43300; Week 1 (12/6/2023)
Protocol: as §1, §2

P. aeruginosa MRSN 5519 = assay: microbe, parasite or virus in culture
Protocol: as §1, §2

E. cloacae ATCC 35549 = assay: microbe, parasite or virus in culture
Protocol: as §1, §2

A. baumannii ATCC 17978 = assay: microbe, parasite or virus in culture
Protocol: as §1, §2

E. cloacae ATCC 13047 = assay: microbe, parasite or virus in culture
Protocol: as §1, §2

E. coli ATCC 43888 = assay: microbe, parasite or virus in culture
Protocol: as §1, §2

[1] = tested on: K. pneumoniae ATCC 700603; assay: microbe, parasite or virus in culture; conditions: K. pneumoniae 700603; Week 1 (12/6/2023)
Protocol: as §1, §2

A. baumannii ATCC 19606 = assay: microbe, parasite or virus in culture
Protocol: as §1, §2

A. baumannii 5075 = conditions: Week 1 (12/6/2023)
P. aeruginosa PA01 (Si) = assay: microbe, parasite or virus in culture; assay type: cell-based
From the text: Supplement 41522_2025_837_MOESM13_ESM.xlsx, sheet "Table_S13_ESKAPEE-MIC" | column: Bacterial MIC (µg/mL)

[2] = parameters: method as in Biomatik (vendor); conditions: 1.0 mg peptide in 1.0 ml solvent; peptides synthesized by Biomatik; ref Biomatik (vendor); cited from earlier work
[3] = tested on: Batrachochytrium dendrobatidis Bd-GPL strain JEL404; conditions: slope of growth, positive = inhibition, negative = no inhibition
Protocol: Bd-peptide challenge assays were conducted with the crude peptides extracted from the salamander skin secretions and with the 20 synthesized peptides. We followed methods by Pereria et al.[49] to conduct assays with the crude peptides using Bd-GPL strain JEL404 at 1 × 10^6 zoospores/mL. Briefly, skin peptide samples were pooled together based on species-site-injection (Table 1). Skin peptides samples were serially diluted 2-fold in MilliQ (Ultrapure Type 1) water and assayed at a concentration of 2.35–75 μg/mL based on starting peptide concentration available. For synthesized peptides, we conducted assays from 15.6 to 500 μg/ml. In both assays, we quantified percent inhibition of each well using slope of growth[90] in which positive values indicate inhibition and negative values indicate no inhibition.

[4] = E. faecium 19434, Week 1 (12/6/2023)
[5] = S. aureus 25923, Week 1 (12/6/2023)
[6] = E. faecium 49224, Week 1 (12/6/2023)
[7] = P. aeruginosa 27853, Week 1 (12/6/2023)
[8] = K. pneumoniae 13883, Week 1 (12/6/2023)
[9] = P. aeruginosa 5519, Week 1 (12/6/2023)
[10] = E. cloacae 35549, Week 1 (12/6/2023)
[11] = A. baumannii 17978, Week 1 (12/6/2023)
[12] = E. cloacae 13047, Week 1 (12/6/2023)
[13] = E. coli 43888, Week 1 (12/6/2023)
[14] = A. baumannii 19606, Week 1 (12/6/2023)
[15] = P. aeruginosa PA01 (Si), not typical ESKAPEE strain, Week 1 (12/6/2023)
[16] = K. pneumoniae 4640, Week 1 (12/6/2023)
[17] = synthesized peptide 15.625 μg/mL
[18] = synthesized peptide 31.25 μg/mL

Row | Compound | Bacterial MIC (E. faecium ATCC 19434; ATCC 19434, 20 h) | Bacterial MIC (S. aureus ATCC 25923; ATCC 25923, 20 h) | Bacterial MIC (E. coli ATCC 35218) | Bacterial MIC (E. faecium ATCC 49224; ATCC 49224, 20 h) | Bacterial MIC (P. aeruginosa ATCC 27853; ATCC 27853, 20 h) | Bacterial MIC (K. pneumoniae ATCC 13883; ATCC 13883, 20 h) | Bacterial MIC (S. aureus ATCC 43300) | Bacterial MIC (P. aeruginosa MRSN 5519; MRSN 5519, 20 h) | Bacterial MIC (E. cloacae ATCC 35549; ATCC 35549, 20 h) | Bacterial MIC (A. baumannii ATCC 17978; ATCC 17978, 20 h) | Bacterial MIC (E. cloacae ATCC 13047; ATCC 13047, 20 h) | Bacterial MIC (E. coli ATCC 43888; ATCC 43888, 20 h) | Bacterial MIC [1] | Bacterial MIC (A. baumannii ATCC 19606; ATCC 19606, 20 h) | Bacterial MIC (A. baumannii 5075) | Bacterial MIC (P. aeruginosa PA01 (Si); Si) | Bacterial MIC (K. pneumoniae 4640; 4640, 20 h) | Suggest solvent (solubility) [2] | Bacterial MIC (E. faecium ATCC 19434; [4]) | Bacterial MIC (S. aureus ATCC 25923; [5]) | also measured
1 | LHTKRVQNKKKNGNRRQTIGKKCTAGFICKKEYLKLNPGIYSVIHD (cysteines drawn unpaired) [Tr-Eb1] | >128.000 mg/L | >128.000 mg/L | >128.000 mg/L | >128.000 mg/L | >128.000 mg/L | >128.000 mg/L | >128.000 mg/L | >128.000 mg/L | >128.000 mg/L | >128.000 mg/L | >128.000 mg/L | >128.000 mg/L | >128.000 mg/L | >128.000 mg/L | >128.000 mg/L | >128.000 mg/L | >128.000 mg/L | 1.0mg peptide soluble in 1.0ml DMSO | – | – | –
2 | NRKGPRPPGFSPFR [PrAd-Eb9] | – | – | >128.000 mg/L | – | – | – | >128.000 mg/L | – | – | – | – | – | >128.000 mg/L | – | >128.000 mg/L | – | – | 1.0mg peptide soluble in 1.0ml H2O | >128.000 mg/L | >128.000 mg/L | Bacterial MIC (E. faecium ATCC 49224; [6]): >128.000 mg/L; Bacterial MIC (P. aeruginosa ATCC 27853; [7]): >128.000 mg/L; Bacterial MIC (K. pneumoniae ATCC 13883; [8]): >128.000 mg/L; Bacterial MIC (P. aeruginosa MRSN 5519; [9]): >128.000 mg/L; Bacterial MIC (E. cloacae ATCC 35549; [10]): >128.000 mg/L; Bacterial MIC (A. baumannii ATCC 17978; [11]): >128.000 mg/L; Bacterial MIC (E. cloacae ATCC 13047; [12]): >128.000 mg/L; Bacterial MIC (E. coli ATCC 43888; [13]): >128.000 mg/L; Bacterial MIC (A. baumannii ATCC 19606; [14]): >128.000 mg/L; Bacterial MIC (P. aeruginosa PA01 (Si); [15]): >128.000 mg/L; Bacterial MIC (K. pneumoniae 4640; [16]): >128.000 mg/L; Bd inhibition score (percent inhibition), mean [3, 17]: -120.796%; Bd inhibition score (percent inhibition), mean [3, 18]: -129.548%; Bd inhibition score (percent inhibition), mean ([3]; synthesized peptide 62.5 μg/mL): -134.776%; Bd inhibition score (percent inhibition), mean ([3]; synthesized peptide 125 μg/mL): -156.474%; Bd inhibition score (percent inhibition), mean ([3]; synthesized peptide 250 μg/mL): -160.396%; Bd inhibition score (percent inhibition), mean ([3]; synthesized peptide 500 μg/mL): -188.605%
3 | IRRPPGFSPFR [PrAd-Eb8] | >128.000 mg/L | >128.000 mg/L | >128.000 mg/L | >128.000 mg/L | >128.000 mg/L | >128.000 mg/L | >128.000 mg/L | >128.000 mg/L | >128.000 mg/L | >128.000 mg/L | >128.000 mg/L | >128.000 mg/L | >128.000 mg/L | >128.000 mg/L | >128.000 mg/L | >128.000 mg/L | >128.000 mg/L | 1.0mg peptide soluble in 1.0ml H2O | – | – | –
4 | CC[C@H](C)[C@H](NC(=O)CNC(=O)CNC(=O)[C@@H](NC(=O)[C@H](CS)NC(=O)[C@H](CCCCN)NC(=O)[C@H](CCCCN)NC(=O)CNC(=O)[C@@H](NC(=O)[C@@H]1CCCN1C(=O)[C@@H](N)CCC(N)=O)[C@@H](C)CC)[C@@H](C)O)C(=O)N[C@@H](CC(N)=O)C(=O)N[C@@H](CS)C(=O)N[C@@H](CCCCN)C(=O)N[C@@H](CCCCN)C(=O)NCC(=O)N1CCC[C@H]1C(=O)N1CCC[C@H]1C(=O)N[C@@H](CCCNC(=N)N)C(=O)N[C@@H](CC(C)C)C(=O)N[C@@H](CCCCN)C(=O)N1CCC[C@H]1C(=O)NCC(=O)O [TrPr-Pc6] (H-QPIGKKCTGGINCKKGPPRLKPG-OH; N-terminus and C-terminus assumed) | >128.000 mg/L | >128.000 mg/L | >128.000 mg/L | >128.000 mg/L | >128.000 mg/L | >128.000 mg/L | >128.000 mg/L | >128.000 mg/L | >128.000 mg/L | >128.000 mg/L | >128.000 mg/L | >128.000 mg/L | >128.000 mg/L | >128.000 mg/L | >128.000 mg/L | >128.000 mg/L | >128.000 mg/L | 1.0mg peptide soluble in 1.0ml H2O | – | – | –
5 | KGPRPPGFSPFR [PrMb-Eb7] | – | – | >128.000 mg/L | – | – | – | >128.000 mg/L | – | – | – | – | – | >128.000 mg/L | – | >128.000 mg/L | – | – | 1.0mg peptide soluble in 1.0ml H2O | >128.000 mg/L | >128.000 mg/L | Bacterial MIC (E. faecium ATCC 49224; [6]): >128.000 mg/L; Bacterial MIC (P. aeruginosa ATCC 27853; [7]): >128.000 mg/L; Bacterial MIC (K. pneumoniae ATCC 13883; [8]): >128.000 mg/L; Bacterial MIC (P. aeruginosa MRSN 5519; [9]): >128.000 mg/L; Bacterial MIC (E. cloacae ATCC 35549; [10]): >128.000 mg/L; Bacterial MIC (A. baumannii ATCC 17978; [11]): >128.000 mg/L; Bacterial MIC (E. cloacae ATCC 13047; [12]): >128.000 mg/L; Bacterial MIC (E. coli ATCC 43888; [13]): >128.000 mg/L; Bacterial MIC (A. baumannii ATCC 19606; [14]): >128.000 mg/L; Bacterial MIC (P. aeruginosa PA01 (Si); [15]): >128.000 mg/L; Bacterial MIC (K. pneumoniae 4640; [16]): >128.000 mg/L; Bd inhibition score (percent inhibition), mean [3, 17]: -125.322%; Bd inhibition score (percent inhibition), mean [3, 18]: -116.924%; Bd inhibition score (percent inhibition), mean ([3]; synthesized peptide 62.5 μg/mL): -107.962%; Bd inhibition score (percent inhibition), mean ([3]; synthesized peptide 125 μg/mL): -145.651%; Bd inhibition score (percent inhibition), mean ([3]; synthesized peptide 250 μg/mL): -143.314%; Bd inhibition score (percent inhibition), mean ([3]; synthesized peptide 500 μg/mL): -136.81%
